Assay results as given in patent US20220073592A1, “SYNTHETIC AND RECOMBINANT COLLAGEN PEPTIDES HAVING BIOLOGICAL ACTIVITY” (GELITA AG, priority 2018, published 2022).
Where no end group is shown, it is not given here. [ ]: non-standard residue; d: D form. Hyp = O=C(O)[C@@H]1C[C@@H](O)CN1

What was measured:
Format in all cases: cell-based
human dermal fibroblasts [1] = experiment: Blyscan glycosaminoglycan assay, proteoglycan synthesis by dermal fibroblasts; details: 0.5 mg/ml, two weeks stimulation; for increase in collagen synthesis (in the proteoglycan assay, dermal fibroblasts): non-hydroxylated peptides; for increase in the synthesis of proteoglycans by dermal fibroblasts compared to untreated controls: hydroxylated peptides
Protocol: The human cells used were obtained from tebu-bio GmbH, Offenbach, Germany. The chondrocytes (Cat. No. 402-05a) or dermal fibroblasts (Cat. No. 106-05a) were first sown in 12-well culture plates and cultured at 37° C., 5% CO2 in Ham's F12 medium, to which 10% fetal calf serum, 20 U/ml penicillin-streptomycin and 50 μg/ml ascorbic acid were added. On every other day, the culture medium was replaced by new culture medium until the cells had reached 80% confluence. […] The Blyscan glycosaminoglycan assay (Article No. 054B3000, 2019, tebu-bio, Offenbach, Germany, or Biocolor Ltd., UK) was used to determine proteoglycans. The biosynthesis of proteoglycans was determined after stimulating dermal fibroblasts for two weeks. According to the manufacturer's instructions, after discarding the culture medium, the cell layers were covered with 1 ml of papain extraction solution and incubated for three hours at 65° C. with vigorous shaking. The cell suspensions were then centrifuged (10,000 g, 10 min) and the supernatants were collected. After adding 1 ml of Blyscan dye solution and shaking (30 min), the supernatants were centrifuged again (12,000 rpm, 10 min) and then discarded. The isolated proteoglycan pellets were resuspended in 500 μl of dissociation solution. A photometric determination of the synthesized proteoglycan in 200 μl sample solution was carried out at a wavelength of 656 nm in comparison to untreated control experiments.

human chondrocytes [2] = experiment: Sircol collagen assay, collagen synthesis by chondrocytes; details: 0.5 mg/ml peptide, three weeks stimulation
Protocol: (§1) The human cells used were obtained from tebu-bio GmbH, Offenbach, Germany. The chondrocytes (Cat. No. 402-05a) or dermal fibroblasts (Cat. No. 106-05a) were first sown in 12-well culture plates and cultured at 37° C., 5% CO2 in Ham's F12 medium, to which 10% fetal calf serum, 20 U/ml penicillin-streptomycin and 50 μg/ml ascorbic acid were added. On every other day, the culture medium was replaced by new culture medium until the cells had reached 80% confluence. […] To investigate the collagen metabolism, the amount of newly synthesized collagen was determined after stimulating the cells with 0.5 mg/ml BCP for three weeks. The synthesized collagen was isolated using the Sircol assay (Article No. 054S5000, 2019, tebu-bio, Offenbach, Germany, or Biocolor Ltd., UK) according to the manufacturer's instructions. In brief, the culture medium was initially discarded and the adherent cell layers were digested with 0.1 mg pepsin solution in 0.5 M acetic acid at 4° C. overnight. The cell suspensions were neutralized by adding 100 μl of an acid-neutralizing reagent. The synthesized collagen was then separated off by adding 200 μl of an isolation and concentration solution with vigorous shaking at 4° C. overnight. After centrifugation (12,000 rpm, 10 min) and discarding the supernatant, the isolated collagen was resuspended in 1 ml of Sircol dye solution. After 30 minutes of shaking and another centrifugation, the collagen pellet was covered with 750 μl of cold acidic solid washing reagent. After another centrifugation, the supernatant was again discarded and the enriched collagen was taken up in 250 μl of alkaline solution. In each case 200 μl of the sample solutions were used for photometric quantification of the synthesized collagen. The absorbance was measured at a wavelength of 492 nm. The amount of collagen synthesized in each case was determined on the basis of standardized collagen solutions.

human chondrocytes [3] = experiment: Blyscan glycosaminoglycan assay, proteoglycan synthesis by chondrocytes; details: 0.5 mg/ml; for increase in the synthesis of proteoglycans by chondrocytes compared to untreated controls: non-hydroxylated peptides; for increase in collagen synthesis (in the proteoglycan assay, chondrocytes): hydroxylated peptides
human dermal fibroblasts [4] = experiment: Sircol collagen assay, collagen synthesis by dermal fibroblasts; details: 0.5 mg/ml peptide, three weeks stimulation
Protocol: as §1

| Substance | increase in collagen synthesis (in the proteoglycan assay, dermal fibroblasts) (human dermal fibroblasts [1]) [%] | increase in collagen synthesis by chondrocytes compared to untreated controls (human chondrocytes [2]) [%] | increase in the synthesis of proteoglycans by chondrocytes compared to untreated controls (human chondrocytes [3]) [%] | increase in collagen synthesis by dermal fibroblasts compared to untreated controls (human dermal fibroblasts [4]) [%] | increase in the synthesis of proteoglycans by dermal fibroblasts compared to untreated controls (human dermal fibroblasts [1]) [%] | increase in collagen synthesis (in the proteoglycan assay, chondrocytes) (human chondrocytes [3]) [%] |
| --- | --- | --- | --- | --- | --- | --- |
| GAPGKDGVRGL [SEQ ID No. 11, collagen peptide comprising 11 amino acids] | 18 | 16 | 28 | 19 | – | – |
| GAPGKDGVRGLTGPIGPPGPAGA [SEQ ID No. 12, collagen peptide comprising 23 amino acids] | 19 | 24 | 23 | 22 | – | – |
| GAPGKDGVRGLTGPIGPPGPAGAPGDKGEAGPS [SEQ ID No. 2, collagen peptide comprising 33 amino acids] | 18 | 16 | 22 | 22 | – | – |
| GPPGPAGEKGAPGADGPAGAPGTPGPQGIAGQRGV [SEQ ID No. 16, collagen peptide comprising 35 amino acids] | 18 | 31 | 18 | 22 | – | – |
| Gly-Ala-4Hyp-Gly-Lys-Asp-Gly-Val-Arg-Gly-Leu (GA[Hyp]GKDGVRGL) [SEQ ID No. 17, collagen peptide comprising 11 amino acids] | – | 33 | – | 42 | 24 | 31 |
| Gly-Ala-4Hyp-Gly-Lys-Asp-Gly-Val-Arg-Gly-Leu-Thr-Gly-4Hyp-Ile-Gly-4Hyp-4Hyp-Gly-4Hyp-Ala-Gly-Ala-4Hyp-Gly-Asp-Lys-Gly-Glu-Ala-Gly-4Hyp-Ser (GA[Hyp]GKDGVRGLTG[Hyp]IG[Hyp][Hyp]G[Hyp]AGA[Hyp]GDKGEAG[Hyp]S) [SEQ ID No. 25, collagen peptide comprising 33 amino acids] | – | 19 | – | 27 | 23 | – |
| Gly-Ala-4Hyp-Gly-Lys-Asp-Gly-Val-Arg-Gly-Leu-Thr-Gly-Pro-Ile-Gly-Pro-4Hyp-Gly-Pro-Ala-Gly-Ala (GA[Hyp]GKDGVRGLTGPIGP[Hyp]GPAGA) [SEQ ID No. 18, collagen peptide comprising 23 amino acids] | – | 32 | – | 40 | 31 | 25 |
| Gly-Ala-4Hyp-Gly-Lys-Asp-Gly-Val-Arg-Gly-Leu-Thr-Gly-Pro-Ile-Gly-Pro-4Hyp-Gly-Pro-Ala-Gly-Ala-4Hyp (GA[Hyp]GKDGVRGLTGPIGP[Hyp]GPAGA[Hyp]) [SEQ ID No. 8, collagen peptide comprising 24 amino acids] | – | 24 | – | 37 | 23 | 20 |
| Gly-Ala-4Hyp-Gly-Lys-Asp-Gly-Val-Arg-Gly-Leu-Thr-Gly-Pro-Ile-Gly-Pro-4Hyp-Gly-Pro-Ala-Gly-Ala-4Hyp-Gly-Asp-Lys-Gly-Glu-Ala-Gly-Pro-Ser (GA[Hyp]GKDGVRGLTGPIGP[Hyp]GPAGA[Hyp]GDKGEAGPS) [SEQ ID No. 7, collagen peptide comprising 33 amino acids] | – | 28 | – | 42 | 41 | 30 |
| Gly-Ala-4Hyp-Gly-Lys-Asp-Gly-Val-Arg-Gly-Leu-Thr-Gly-Pro-Ile-Gly-Pro-4Hyp-Gly-Pro-Ala-Gly-Ala-4Hyp-Gly-Asp-Lys-Gly-Glu-Ala-Gly-Pro-Ser-Gly-Pro-Ala-Gly-Pro-Thr-Gly-Ala-Arg-Gly-Ala-4Hyp-Gly-Asp-Arg-Gly-Glu-4Hyp-Gly-Pro-4Hyp-Gly-Pro-Ala-Gly [SEQ ID No. 19] | – | 37 | – | 40 | 29 | 18 |
| Gly-Ala-4Hyp-Gly-Lys-Asp-Gly-Val-Arg-Gly-Leu-Thr-Gly-Pro-Ile-Gly-Pro-4Hyp-Gly-Pro-Ala-Gly-Ala-4Hyp-Gly-Asp-Lys-Gly-Glu-Ala-Gly-Pro-Ser-Gly-Pro-Ala-Gly-Pro-Thr-Gly-Ala-Arg-Gly-Ala-4Hyp-Gly-Asp-Arg-Gly-Glu-4Hyp-Gly-Pro-4Hyp-Gly-Pro-Ala-Gly-Phe-Ala-Gly-Pro-4Hyp-Gly-Ala-Asp-Gly-Gln-4Hyp-Gly-Ala-Lys-Gly-Glu-Pro-Gly-Asp-Ala-Gly-Ala-Lys-Gly-Asp-Ala-Gly-Pro-Pro-Gly-Pro-Ala [SEQ ID No. 20] | – | – | – | 37 | 29 | 15 |
| Gly-Leu-4Hyp-Gly-Lys-Met-Gly-Val-Phe-Gly-Leu-Thr-Gly-Pro-Ile-Gly-Pro-4Hyp-Gly-Pro-Trp-Gly-Val-4Hyp-Gly-His-Lys-Gly-Tyr-Leu-Gly-Pro-Thr (GL[Hyp]GKMGVFGLTGPIGP[Hyp]GPWGV[Hyp]GHKGYLGPT) [SEQ ID No. 27, collagen peptide comprising 33 amino acids] | – | – | – | 27 | 26 | – |
| Gly-Leu-4Hyp-Gly-Lys-Tyr-Gly-Val-His-Gly-Leu-Thr-Gly-Pro-Leu-Gly-Pro-4Hyp-Gly-Pro-Met-Gly-Ile-4Hyp-Gly-Trp-Lys-Gly-Phe-Val-Gly-Pro-Thr (GL[Hyp]GKYGVHGLTGPLGP[Hyp]GPMGI[Hyp]GWKGFVGPT) [SEQ ID No. 28, collagen peptide comprising 33 amino acids] | – | – | – | 22 | 22 | – |
| Gly-Pro-4Hyp-Gly-Pro-Leu-Gly-Met-Lys-Gly-Leu-4Hyp-Gly-Val-Trp-Gly-Pro-Phe-Gly-Leu-4Hyp-Gly-Thr-Pro-Gly-Pro-His-Gly-Ile-Thr-Gly-Tyr-Lys-Gly-Val [SEQ ID No. 29] | – | – | – | 21 | 21 | – |
| Gly-Pro-4Hyp-Gly-Pro-Val-Gly-Thr-Lys-Gly-Leu-4Hyp-Gly-Phe-Tyr-Gly-Pro-Leu-Gly-Ile-4Hyp-Gly-His-Pro-Gly-Pro-Trp-Gly-Met-Leu-Gly-Thr-Lys-Gly-Val [SEQ ID No. 30] | – | – | – | 21 | 22 | – |
| His-His-His-His-His-His-Gly-Ala-4Hyp-Gly-Lys-Asp-Gly-Val-Arg-Gly-Leu-Thr-Gly-Pro-Ile-Gly-Pro-4Hyp-Gly-Pro-Ala-Gly-Ala-4Hyp-Gly-Asp-Lys-Gly-Glu-Ala-Gly-Pro-Ser (HHHHHHGA[Hyp]GKDGVRGLTGPIGP[Hyp]GPAGA[Hyp]GDKGEAGPS) [SEQ ID No. 26, collagen peptide comprising 39 amino acids] | – | 12 | – | 12 | 6 | – |
